What follows are molecules tested against human PDE10A2 (Homo sapiens (Human), UniProt Q9Y233) (assay: PDE10 fluorescence polarization (IMAP FP) inhibition assay). Settings: read-out: PDE10a Ki.
Type: biochemical
Description: The activity of the compounds in accordance with the present invention as PDE10 inhibitors may be readily determined without undue experimentation using a fluorescence polarization (FP) methodology that is well known in the art (Huang, W., et al., J. Biomol Screen, 2002, 7: 215).
In a typical experiment the PDE10 inhibitory activity of the compounds of the present invention was determined in accordance with the following experimental method. PDE10A2 was amplified from human fetal brain cDNA (Clontech, Mountain View, Calif.) using a forward primer corresponding to nucleotides 56-77 of human PDE10A2 (Accession No. AF127480, Genbank Identifier 4894716), containing a Kozak consensus sequence, and a reverse primer corresponding to nucleotides 2406-2413 of human PDE10A2 (Accession No. AF127480, Genbank Identifier 4894716). Amplification with Easy-A polymerase (Stratagene, La Jolla, Calif.) was 95° C. for 2 minutes followed by thirty three cycles of 95° C. for 40 seconds, 55° C. for 30 seconds, and 72° C. for 2 minutes 48 seconds. Final extension was 72° C. for 7 minutes. The PCR product was TA cloned into pcDNA3.2-TOPO (Invitrogen, Carlsbad, Calif.) according to standard protocol. AD293 cells with 70-80% confluency were transiently transfected with human PDE10A2/pcDNA3.2-TOPO using Lipofectamine 2000 according to manufacturer specifications (Invitrogen, Carlsbad, Calif.). Cells were harvested 48 hours post-transfection and lysed by sonication (setting 3, 10×5 sec pulses) in a buffer containing 20 mM HEPES, 1 mM EDTA and protease inhibitor cocktail (Roche). Lysate was collected by centrifugation at 75,000×g for 20 minutes. Supernatant containing the cytoplasmic fraction was used for evaluation of PDE10A2 activity. The fluorescence polarization assay for cyclic nucleotide phosphodiesterases was performed using an IMAP® FP kit supplied by Molecular Devices, Sunnyvale, Calif. (product # R8139). IMAP® technology has been applied previously to phosphodiesterase assays (Huang, W., et al., J. Biomol Screen, 2002, 7: 215). Assays were performed at room temperature in 384-well microtiter plates with an incubation volume of 20.2 μL. Solutions of test compounds were prepared in DMSO and serially diluted with DMSO to yield 8 μL of each of 10 solutions differing by 3-fold in concentration, at 32 serial dilutions per plate. […] 0% of inhibition is determined by using DMSO (1% final concentrations).
A Labcyte Echo 555 (Labcyte, Sunnyvale, Calif.) is used to dispense 200 nL from each well of the titration plate to the 384 well assay plate. A solution of enzyme (1/1600 dilution from aliquots; sufficient to produce 20% substrate conversion) and a separate solution of FAM-labeled cAMP PDE from Molecular Devices (product # R7506), at a final concentration of 50 nM are made in the assay buffer (10 mM Tris HCl, pH 7.2, 10 mM MgCl2, 0.05% NaN3 0.01% Tween-20, and 1 mM DTT). The enzyme and the substrate are then added to the assay plates in two consecutive additions of 10 μL, and then shaken to mix. The reaction is allowed to proceed at room temperature for 30 minutes. […] The enzymatic reaction is stopped by addition of 60 μL of the binding solution to each well of the assay plates and the plates are sealed and shaken for 10 seconds. The plate was incubated at room temperature for at least one hour prior to determining the fluorescence polarization (FP). The parallel and perpendicular fluorescence of each well of the plate was measured using a Perkin Elmer EnVision™ plate reader (Waltham, Mass.).
Fluorescence polarization (mP) was calculated from the parallel (S) and perpendicular (P) fluorescence of each sample well and the analogous values for the median control well, containing only substrate (So and Po), using the following equation: Polarization (mP)=1000*(S/So−P/Po)/(S/So+P/Po).
Dose-inhibition profiles for each compound were characterized by fitting the mP data to a four-parameter equation given below.

Sequence of human PDE10A2 (Q9Y233 267-1055): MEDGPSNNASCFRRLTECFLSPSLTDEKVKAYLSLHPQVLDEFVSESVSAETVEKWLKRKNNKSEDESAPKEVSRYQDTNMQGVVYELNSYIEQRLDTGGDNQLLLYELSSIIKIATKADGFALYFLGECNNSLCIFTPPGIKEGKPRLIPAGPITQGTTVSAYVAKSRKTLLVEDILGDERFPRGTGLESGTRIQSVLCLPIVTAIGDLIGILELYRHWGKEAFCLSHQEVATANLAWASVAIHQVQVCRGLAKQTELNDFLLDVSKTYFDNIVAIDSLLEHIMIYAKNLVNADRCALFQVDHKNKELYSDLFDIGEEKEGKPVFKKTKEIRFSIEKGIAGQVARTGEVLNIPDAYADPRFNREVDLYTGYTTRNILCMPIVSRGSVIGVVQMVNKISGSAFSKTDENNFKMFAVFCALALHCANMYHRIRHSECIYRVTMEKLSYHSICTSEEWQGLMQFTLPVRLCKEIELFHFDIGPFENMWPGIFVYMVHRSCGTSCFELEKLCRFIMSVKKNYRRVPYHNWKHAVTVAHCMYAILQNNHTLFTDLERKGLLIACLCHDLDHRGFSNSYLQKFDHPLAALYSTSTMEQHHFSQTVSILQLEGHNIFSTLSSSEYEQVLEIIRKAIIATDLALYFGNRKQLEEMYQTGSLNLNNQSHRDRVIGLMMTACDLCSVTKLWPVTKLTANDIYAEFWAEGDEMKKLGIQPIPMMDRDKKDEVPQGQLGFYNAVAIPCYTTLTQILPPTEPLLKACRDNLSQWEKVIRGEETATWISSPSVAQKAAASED

Ki	Compound
0.11 nM	Cc1nc(N2CC(c3nc4ccccc4n3C)C2)cc(-n2nc(C)nc2C(O)C(F)(F)F)n1 (racemic) [Example 3, 2,2,2-trifluoro-1-(3-methyl-1-(2-methyl-6-(3-(1-methyl-1H-benzo[d]imidazol-2-yl)azetidin-1-yl)pyrimidin-4-yl)-1H-1,2,4-triazol-5-yl)ethanol]
1 nM	Cc1nc(N2CC(c3nc4ccccc4n3C)C2)cc(-n2nc(C)nc2C(O)C(F)(F)F)n1 (single isomer, unassigned) [Example 3a, 2,2,2-trifluoro-1-(3-methyl-1-(2-methyl-6-(3-(1-methyl-1H-benzo[d]imidazol-2-yl)azetidin-1-yl)pyrimidin-4-yl)-1H-1,2,4-triazol-5-yl)ethanol]
1.8 nM	CCC(O)c1nc(C)nn1-c1cc(N2CC(c3nc4ccccc4n3C)C2)nc(C)n1 (single isomer, unassigned) [Example 4a, 1-(3-methyl-1-(2-methyl-6-(3-(1-methyl-1H-benzo[d]imidazol-2-yl)azetidin-1-yl)pyrimidin-4-yl)-1H-1,2,4-triazol-5-yl)propan-1-ol]
0.34 nM	Cc1nc(N2CC(c3nc4ccccc4n3C)C2)cc(-n2nc(C)nc2C(O)C(C)C)n1 (single isomer, unassigned) [Example 5a, 2-methyl-1-(3-methyl-1-(2-methyl-6-(3-(1-methyl-1H-benzo[d]imidazol-2-yl)azetidin-1-yl)pyrimidin-4-yl)-1H-1,2,4-triazol-5-yl)propan-1-ol]
0.77 nM	Cc1nc(N2CC(c3nc4ccccc4n3C)C2)cc(-n2nc(C)nc2C(O)C(C)C)n1 (single isomer, unassigned) [Example 5b, 2-methyl-1-(3-methyl-1-(2-methyl-6-(3-(1-methyl-1H-benzo[d]imidazol-2-yl)azetidin-1-yl)pyrimidin-4-yl)-1H-1,2,4-triazol-5-yl)propan-1-ol]
2.6 nM	Cc1nc(N2CC(c3nc4ccccc4n3C)C2)cc(-n2nc(C)nc2C(O)C2CC2)n1 (single isomer, unassigned) [Example 6b, cyclopropyl(3-methyl-1-(2-methyl-6-(3-(1-methyl-1H-benzo[d]imidazol-2-yl)azetidin-1-yl)pyrimidin-4-yl)-1H-1,2,4-triazol-5-yl)methanol]
4.5 nM	Cc1nc(N2CC(c3nc4ccccc4n3C)C2)cc(-n2nc(C)nc2C(O)CC(F)(F)F)n1 (single isomer, unassigned) [Example 7a, 3,3,3-trifluoro-1-(3-methyl-1-(2-methyl-6-(3-(1-methyl-1H-benzo[d]imidazol-2-yl)azetidin-1-yl)pyrimidin-4-yl)-1H-1,2,4-triazol-5-yl)propan-1-ol]
2.5 nM	Cc1nc(N2CC(c3nc4ccccc4n3C)C2)cc(-n2nc(C)nc2C(O)CC(F)(F)F)n1 (single isomer, unassigned) [Example 7b, 3,3,3-trifluoro-1-(3-methyl-1-(2-methyl-6-(3-(1-methyl-1H-benzo[d]imidazol-2-yl)azetidin-1-yl)pyrimidin-4-yl)-1H-1,2,4-triazol-5-yl)propan-1-ol]
0.53 nM	Cc1nc(C(C)O)n(-c2cc(N3CC(c4nc5ccccc5n4C)C3)nc(C(F)(F)F)n2)n1 (single isomer, unassigned) [Example 8a, 1-(3-methyl-1-(6-(3-(1-methyl-1H-benzo[d]imidazol-2-yl)azetidin-1-yl)-2-(trifluoromethyl)pyrimidin-4-yl)-1H-1,2,4-triazol-5-yl)ethanol]
1 nM	Cc1nc(C(C)O)n(-c2cc(N3CC(c4nc5ccccc5n4C)C3)nc(C(F)(F)F)n2)n1 (single isomer, unassigned) [Example 8b, 1-(3-methyl-1-(6-(3-(1-methyl-1H-benzo[d]imidazol-2-yl)azetidin-1-yl)-2-(trifluoromethyl)pyrimidin-4-yl)-1H-1,2,4-triazol-5-yl)ethanol]
0.13 nM	Cc1nc(C(C)O)n(-c2cc(N3CC(c4nc5ccccc5n4C)C3)nc(C3CC3)n2)n1 (single isomer, unassigned) [Example 10a, 1-(1-(2-cyclopropyl-6-(3-(1-methyl-1H-benzo[d]imidazol-2-yl)azetidin-1-yl)pyrimidin-4-yl)-3-methyl-1H-1,2,4-triazol-5-yl)ethanol]
0.39 nM	Cc1nc(C(C)O)n(-c2cc(N3CC(c4nc5ccccc5n4C)C3)nc(C3CC3)n2)n1 (single isomer, unassigned) [Example 10b, 1-(1-(2-cyclopropyl-6-(3-(1-methyl-1H-benzo[d]imidazol-2-yl)azetidin-1-yl)pyrimidin-4-yl)-3-methyl-1H-1,2,4-triazol-5-yl)ethanol]
0.65 nM	Cc1nc(N2CC(c3nc4ccccc4n3C)C2)cc(-n2nc(C)nc2C(O)C(F)F)n1 (single isomer, unassigned) [Example 11a, 2,2-difluoro-1-(3-methyl-1-(2-methyl-6-(3-(1-methyl-1H-benzo[d]imidazol-2-yl)azetidin-1-yl)pyrimidin-4-yl)-1H-1,2,4-triazol-5-yl)ethanol]
3 nM	Cc1nc(N2CC(c3nc4ccccc4n3C)C2)cc(-n2nc(C)nc2C(O)C(F)F)n1 (single isomer, unassigned) [Example 11b, 2,2-difluoro-1-(3-methyl-1-(2-methyl-6-(3-(1-methyl-1H-benzo[d]imidazol-2-yl)azetidin-1-yl)pyrimidin-4-yl)-1H-1,2,4-triazol-5-yl)ethanol]
0.58 nM	Cc1nc(C2C[C@H]2c2nc3ccccc3n2C)cc(-n2nc(C)nc2C(O)C(F)(F)F)n1 (single isomer, unassigned) [Example 20a]
0.92 nM	Cc1nc(C2C[C@H]2c2nc3ccccc3n2C)cc(-n2nc(C)nc2C(O)C(F)(F)F)n1 (single isomer, unassigned) [Example 20b]
0.51 nM	CCC(O)c1nc(C)nn1-c1cc(N2CC(c3nc4ccccc4n3C)C2)nc(C)n1 (stereo not drawn) [Example 4, 1-(3-methyl-1-(2-methyl-6-(3-(1-methyl-1H-benzo[d]imidazol-2-yl)azetidin-1-yl)pyrimidin-4-yl)-1H-1,2,4-triazol-5-yl)propan-1-ol]
0.41 nM	Cc1nc(N2CC(c3nc4ccccc4n3C)C2)cc(-n2nc(C)nc2C(O)C(C)C)n1 (stereo not drawn) [Example 5, 2-methyl-1-(3-methyl-1-(2-methyl-6-(3-(1-methyl-1H-benzo[d]imidazol-2-yl)azetidin-1-yl)pyrimidin-4-yl)-1H-1,2,4-triazol-5-yl)propan-1-ol]
0.36 nM	Cc1nc(N2CC(c3nc4ccccc4n3C)C2)cc(-n2nc(C)nc2C(O)C2CC2)n1 (stereo not drawn) [Example 6, cyclopropyl(3-methyl-1-(2-methyl-6-(3-(1-methyl-1H-benzo[d]imidazol-2-yl)azetidin-1-yl)pyrimidin-4-yl)-1H-1,2,4-triazol-5-yl)methanol]
3.2 nM	Cc1nc(N2CC(c3nc4ccccc4n3C)C2)cc(-n2nc(C)nc2C(O)CC(F)(F)F)n1 (stereo not drawn) [Example 7, 3,3,3-trifluoro-1-(3-methyl-1-(2-methyl-6-(3-(1-methyl-1H-benzo[d]imidazol-2-yl)azetidin-1-yl)pyrimidin-4-yl)-1H-1,2,4-triazol-5-yl)propan-1-ol]
0.83 nM	Cc1nc(C(C)O)n(-c2cc(N3CC(c4nc5ccccc5n4C)C3)nc(C(F)(F)F)n2)n1 (stereo not drawn) [Example 8, 1-(3-methyl-1-(6-(3-(1-methyl-1H-benzo[d]imidazol-2-yl)azetidin-1-yl)-2-(trifluoromethyl)pyrimidin-4-yl)-1H-1,2,4-triazol-5-yl)ethanol]
